In PubChem BioAssay (NCI):
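96-well plates; 48 h exposure; 5 concentrations. Endpoints by linear interpolation between flanking doses. Not reached: highest tested concentration assigned. TGI: concentration producing complete growth inhibition.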

Legend:
Assay in all cases: NCI anticancer screen, dose series, 48 h
CAKI-1 renal = system: CAKI-1 renal
NCI-H460 lung = system: NCI-H460 lung
KM12 colon = system: KM12 colon
COLO 205 colon = system: COLO 205 colon
HOP-92 NSCLC = system: HOP-92 NSCLC
OVCAR-3 ovarian = system: OVCAR-3 ovarian
OVCAR-8 ovarian = system: OVCAR-8 ovarian
IGROV1 ovarian = system: IGROV1 ovarian
NCI-H23 lung = system: NCI-H23 lung
SK-MEL-2 melanoma = system: SK-MEL-2 melanoma
SN12C renal = system: SN12C renal
M14 melanoma = system: M14 melanoma
CCRF-CEM leukemia = system: CCRF-CEM leukemia
SF-295 CNS = system: SF-295 CNS
HS 578T breast = system: HS 578T breast
MDA-MB-231 breast = system: MDA-MB-231 breast
NCI-H522 lung = system: NCI-H522 lung
RPMI-8226 leukemia = system: RPMI-8226 leukemia
DU-145 prostate = system: DU-145 prostate
MDA-N = system: MDA-N
SR leukemia = system: SR leukemia
T-47D breast = system: T-47D breast
PC-3 prostate = system: PC-3 prostate
MALME-3M melanoma = system: MALME-3M melanoma
SK-MEL-5 melanoma = system: SK-MEL-5 melanoma
HT29 colon = system: HT29 colon
MDA-MB-435 = system: MDA-MB-435
UACC-62 melanoma = system: UACC-62 melanoma
SK-MEL-28 melanoma = system: SK-MEL-28 melanoma
HCT-116 colon = system: HCT-116 colon
HOP-62 NSCLC = system: HOP-62 NSCLC
SNB-75 CNS = system: SNB-75 CNS
U251 CNS = system: U251 CNS
MOLT-4 leukemia = system: MOLT-4 leukemia
HCT-15 colon = system: HCT-15 colon
NCI/ADR-RES ovarian = system: NCI/ADR-RES ovarian
K-562 leukemia = system: K-562 leukemia
A498 renal = system: A498 renal
SK-OV-3 ovarian = system: SK-OV-3 ovarian
HL-60(TB) leukemia = system: HL-60(TB) leukemia
UACC-257 melanoma = system: UACC-257 melanoma
SW-620 colon = system: SW-620 colon
EKVX NSCLC = system: EKVX NSCLC
MCF7 breast = system: MCF7 breast
NCI-H226 lung = system: NCI-H226 lung
A549 NSCLC = system: A549 NSCLC
HCC-2998 colon = system: HCC-2998 colon
UO-31 renal = system: UO-31 renal
LOX IMVI melanoma = system: LOX IMVI melanoma
OVCAR-5 ovarian = system: OVCAR-5 ovarian
OVCAR-4 ovarian = system: OVCAR-4 ovarian
ACHN renal = system: ACHN renal
SF-539 CNS = system: SF-539 CNS
786-0 renal = system: 786-0 renal
TK-10 renal = system: TK-10 renal
SF-268 CNS = system: SF-268 CNS
RXF 393 renal = system: RXF 393 renal
SNB-19 CNS = system: SNB-19 CNS
BT-549 breast = system: BT-549 breast

C1=C(N2CCOCC2)/C(=C2\SC(=Nc3ccccc3)C(=Nc3ccccc3)N2c2ccccc2)CC1
TGI (CAKI-1 renal): > 100 µM
TGI (NCI-H460 lung): > 100 µM
TGI (KM12 colon): > 100 µM
TGI (COLO 205 colon): > 100 µM
TGI (HOP-92 NSCLC): > 100 µM
TGI (OVCAR-3 ovarian): > 100 µM
TGI (OVCAR-8 ovarian): > 100 µM
TGI (IGROV1 ovarian): > 100 µM
TGI (NCI-H23 lung): > 100 µM
TGI (SK-MEL-2 melanoma): > 100 µM
TGI (SN12C renal): > 100 µM
TGI (M14 melanoma): > 100 µM
TGI (CCRF-CEM leukemia): > 100 µM
TGI (SF-295 CNS): > 100 µM
TGI (HS 578T breast): > 100 µM
TGI (MDA-MB-231 breast): > 100 µM
TGI (NCI-H522 lung): > 100 µM
TGI (RPMI-8226 leukemia): > 100 µM
TGI (DU-145 prostate): > 100 µM
TGI (MDA-N): > 100 µM
TGI (SR leukemia): > 100 µM
TGI (T-47D breast): > 100 µM
TGI (PC-3 prostate): > 100 µM
TGI (MALME-3M melanoma): > 100 µM
TGI (SK-MEL-5 melanoma): > 100 µM
TGI (HT29 colon): > 100 µM
TGI (MDA-MB-435): > 100 µM
TGI (UACC-62 melanoma): 48.9 µM
TGI (SK-MEL-28 melanoma): > 100 µM
TGI (HCT-116 colon): > 100 µM
TGI (HOP-62 NSCLC): > 100 µM
TGI (SNB-75 CNS): 65.4 µM
TGI (U251 CNS): > 100 µM
TGI (MOLT-4 leukemia): > 100 µM
TGI (HCT-15 colon): > 100 µM
TGI (NCI/ADR-RES ovarian): > 100 µM
TGI (K-562 leukemia): > 100 µM
TGI (A498 renal): > 100 µM
TGI (SK-OV-3 ovarian): 69 µM

CSC(=S)Nc1cc(C)ccn1
TGI (CAKI-1 renal): > 100 µM
TGI (NCI-H460 lung): > 100 µM
TGI (HL-60(TB) leukemia): > 100 µM
TGI (UACC-257 melanoma): > 100 µM
TGI (SW-620 colon): > 100 µM
TGI (KM12 colon): > 100 µM
TGI (EKVX NSCLC): > 100 µM
TGI (COLO 205 colon): > 100 µM
TGI (HOP-92 NSCLC): > 100 µM
TGI (OVCAR-3 ovarian): > 100 µM
TGI (OVCAR-8 ovarian): > 100 µM
TGI (MCF7 breast): > 100 µM
TGI (IGROV1 ovarian): 58 µM
TGI (NCI-H226 lung): > 100 µM
TGI (NCI-H23 lung): > 100 µM
TGI (SK-MEL-2 melanoma): > 100 µM
TGI (SN12C renal): > 100 µM
TGI (A549 NSCLC): > 100 µM
TGI (M14 melanoma): > 100 µM
TGI (CCRF-CEM leukemia): > 100 µM
TGI (SF-295 CNS): > 100 µM
TGI (HS 578T breast): > 100 µM
TGI (MDA-MB-231 breast): 88.8 µM
TGI (NCI-H522 lung): > 100 µM
TGI (RPMI-8226 leukemia): > 100 µM
TGI (DU-145 prostate): > 100 µM
TGI (MDA-N): > 100 µM
TGI (HCC-2998 colon): > 100 µM
TGI (UO-31 renal): > 100 µM
TGI (LOX IMVI melanoma): > 100 µM
TGI (OVCAR-5 ovarian): > 100 µM
TGI (SR leukemia): > 100 µM
TGI (OVCAR-4 ovarian): > 100 µM
TGI (ACHN renal): > 100 µM
TGI (SF-539 CNS): > 100 µM
TGI (T-47D breast): > 100 µM
TGI (PC-3 prostate): > 100 µM
TGI (MALME-3M melanoma): > 100 µM
TGI (786-0 renal): > 100 µM
TGI (SK-MEL-5 melanoma): 46.5 µM
TGI (HT29 colon): > 100 µM
TGI (TK-10 renal): > 100 µM
TGI (MDA-MB-435): > 100 µM
TGI (UACC-62 melanoma): > 100 µM
TGI (SF-268 CNS): > 100 µM
TGI (RXF 393 renal): > 100 µM
TGI (SK-MEL-28 melanoma): > 100 µM
TGI (HCT-116 colon): > 100 µM
TGI (HOP-62 NSCLC): > 100 µM
TGI (SNB-75 CNS): > 100 µM
TGI (U251 CNS): > 100 µM
TGI (MOLT-4 leukemia): > 100 µM
TGI (HCT-15 colon): > 100 µM
TGI (NCI/ADR-RES ovarian): > 100 µM
TGI (K-562 leukemia): > 100 µM
TGI (SNB-19 CNS): > 100 µM
TGI (SK-OV-3 ovarian): > 100 µM

C[C@H]1ON2CCC[C@@H]2[C@@H]1C(=O)N1C2CC3CCC2(CS1(=O)=O)C3(C)C (some centres not stated)
TGI (CAKI-1 renal): > 100 µM
TGI (NCI-H460 lung): > 100 µM
TGI (HL-60(TB) leukemia): 26.6 µM
TGI (UACC-257 melanoma): > 100 µM
TGI (SW-620 colon): > 100 µM
TGI (KM12 colon): > 100 µM
TGI (EKVX NSCLC): > 100 µM
TGI (COLO 205 colon): > 100 µM
TGI (OVCAR-3 ovarian): > 100 µM
TGI (OVCAR-8 ovarian): > 100 µM
TGI (MCF7 breast): > 100 µM
TGI (IGROV1 ovarian): > 100 µM
TGI (NCI-H226 lung): > 100 µM
TGI (NCI-H23 lung): > 100 µM
TGI (SK-MEL-2 melanoma): > 100 µM
TGI (SN12C renal): > 100 µM
TGI (A549 NSCLC): > 100 µM
TGI (M14 melanoma): > 100 µM
TGI (CCRF-CEM leukemia): > 100 µM
TGI (SF-295 CNS): > 100 µM
TGI (HS 578T breast): > 100 µM
TGI (MDA-MB-231 breast): > 100 µM
TGI (NCI-H522 lung): > 100 µM
TGI (DU-145 prostate): > 100 µM
TGI (MDA-N): > 100 µM
TGI (HCC-2998 colon): > 100 µM
TGI (LOX IMVI melanoma): > 100 µM
TGI (OVCAR-5 ovarian): > 100 µM
TGI (OVCAR-4 ovarian): > 100 µM
TGI (ACHN renal): > 100 µM
TGI (SF-539 CNS): > 100 µM
TGI (T-47D breast): > 100 µM
TGI (PC-3 prostate): > 100 µM
TGI (MALME-3M melanoma): > 100 µM
TGI (786-0 renal): > 100 µM
TGI (SK-MEL-5 melanoma): > 100 µM
TGI (HT29 colon): > 100 µM
TGI (TK-10 renal): > 100 µM
TGI (MDA-MB-435): > 100 µM
TGI (UACC-62 melanoma): > 100 µM
TGI (SF-268 CNS): > 100 µM
TGI (RXF 393 renal): > 100 µM
TGI (SK-MEL-28 melanoma): > 100 µM
TGI (HCT-116 colon): > 100 µM
TGI (HOP-62 NSCLC): > 100 µM
TGI (SNB-75 CNS): > 100 µM
TGI (U251 CNS): > 100 µM
TGI (HCT-15 colon): > 100 µM
TGI (NCI/ADR-RES ovarian): > 100 µM
TGI (K-562 leukemia): > 100 µM
TGI (A498 renal): > 100 µM
TGI (SNB-19 CNS): > 100 µM
TGI (SK-OV-3 ovarian): > 100 µM

c1ccc2c(c1)SCCCSCCCS2
TGI (NCI-H460 lung): > 100 µM
TGI (HL-60(TB) leukemia): 74.5 µM
TGI (UACC-257 melanoma): > 100 µM
TGI (SW-620 colon): > 100 µM
TGI (KM12 colon): > 100 µM
TGI (BT-549 breast): > 100 µM
TGI (EKVX NSCLC): > 100 µM
TGI (COLO 205 colon): > 100 µM
TGI (HOP-92 NSCLC): > 100 µM
TGI (OVCAR-3 ovarian): > 100 µM
TGI (OVCAR-8 ovarian): > 100 µM
TGI (MCF7 breast): > 100 µM
TGI (IGROV1 ovarian): > 100 µM
TGI (NCI-H23 lung): > 100 µM
TGI (SN12C renal): > 100 µM
TGI (A549 NSCLC): > 100 µM
TGI (M14 melanoma): > 100 µM
TGI (CCRF-CEM leukemia): > 100 µM
TGI (SF-295 CNS): > 100 µM
TGI (MDA-MB-231 breast): > 100 µM
TGI (NCI-H522 lung): > 100 µM
TGI (DU-145 prostate): > 100 µM
TGI (MDA-N): > 100 µM
TGI (HCC-2998 colon): > 100 µM
TGI (LOX IMVI melanoma): > 100 µM
TGI (OVCAR-5 ovarian): > 100 µM
TGI (SR leukemia): > 100 µM
TGI (OVCAR-4 ovarian): > 100 µM
TGI (SF-539 CNS): > 100 µM
TGI (T-47D breast): > 100 µM
TGI (PC-3 prostate): > 100 µM
TGI (786-0 renal): > 100 µM
TGI (SK-MEL-5 melanoma): > 100 µM
TGI (TK-10 renal): > 100 µM
TGI (MDA-MB-435): > 100 µM
TGI (UACC-62 melanoma): > 100 µM
TGI (SF-268 CNS): > 100 µM
TGI (SK-MEL-28 melanoma): > 100 µM
TGI (HCT-116 colon): > 100 µM
TGI (HOP-62 NSCLC): > 100 µM
TGI (SNB-75 CNS): > 100 µM
TGI (U251 CNS): > 100 µM
TGI (MOLT-4 leukemia): > 100 µM
TGI (HCT-15 colon): > 100 µM
TGI (NCI/ADR-RES ovarian): > 100 µM
TGI (K-562 leukemia): > 100 µM
TGI (SNB-19 CNS): > 100 µM
TGI (SK-OV-3 ovarian): > 100 µM
